{
  "source": "patent US5866570A",
  "about": "“Treatment of vascular leakage and related syndrome such as septic shock by administration of metalloproteinase inhibitors” (Wisconsin Alumni Research Foundation, priority 1994, dated 1999)",
  "key": {"[1]": {"system": "Lewis lung LL carcinoma", "conditions": "cited from earlier work"}, "[2]": {"conditions": "at 25° C.; cited from earlier work"}, "[3]": {"molecular_target": "T1, recombinant human 72 kD type IV collagenase (Oncologix), APMA activated (Homo sapiens, UniProt P08253)", "T1 construct": "purchased Oncologix", "T1 sequence (P08253 110-660)": "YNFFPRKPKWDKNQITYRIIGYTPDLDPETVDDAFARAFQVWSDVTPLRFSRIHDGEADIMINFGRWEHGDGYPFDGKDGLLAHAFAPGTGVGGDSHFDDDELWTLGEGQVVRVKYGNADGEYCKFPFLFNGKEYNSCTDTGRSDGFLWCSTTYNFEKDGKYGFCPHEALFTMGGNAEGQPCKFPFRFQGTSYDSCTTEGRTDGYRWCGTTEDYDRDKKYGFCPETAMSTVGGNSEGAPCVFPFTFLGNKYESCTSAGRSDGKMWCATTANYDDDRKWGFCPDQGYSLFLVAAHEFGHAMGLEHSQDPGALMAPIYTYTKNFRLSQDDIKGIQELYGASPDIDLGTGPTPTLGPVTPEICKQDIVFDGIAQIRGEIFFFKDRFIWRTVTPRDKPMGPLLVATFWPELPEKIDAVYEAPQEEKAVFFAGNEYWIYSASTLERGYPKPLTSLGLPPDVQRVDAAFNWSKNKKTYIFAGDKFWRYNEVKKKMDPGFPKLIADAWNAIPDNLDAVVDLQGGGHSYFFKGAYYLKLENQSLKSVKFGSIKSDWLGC", "assay": "gelatinase assay, Example 11", "type": "biochemical", "conditions": "10 ng enzyme, 2 hours preincubation at 37° C., 20 min assay, 3H collagen substrate; read-out: IC50 for inhibition of the 72 kD collagenase type IV", "protocol": "NET-660 Collagen (Rat Type I), N-[Propionate-2-3-^3 H] Propionylated (NEN Dupont) with a specific activity of 0.4 mCi/mg, rat type I Collagen (Sigma), P-aminophenylmercuric acetate, APMA (Sigma), recombinant human 72 kD type IV collagenase (Oncologix) with a specific activity of at least 1000 μg collagen digested/hour/μg enzyme, collagenase buffer (50 mM Tris-HCl, 5 mM CaCl2, 200 mM NaCl, 0.02% Brij-35, pH 7.6), bovine serum albumin (BSA), 250 mM EDTA, and 10% TCA+0.7% tannic acid. The substrate is prepared by mixing the ^3 H collagen with the cold collagen at a 2/3 ratio and diluting in the collagenase buffer. The final assay concentration of the ^3 H collagen is 1% or between 20,000 to 40,000 cpm. Inhibitors are prepared just prior to use by dissolving in DMSO (final assay concentration<1%) or collagenase buffer.\nThe 72 kD collagenase enzyme is activated with 0.5 mM APMA for 30 min. at 37° C. and 10 ng of enzyme per assay is used. Inhibitors are preincubated with activated enzyme for 2 hours at 37° C. in collagenase buffer. Substrate is then added to enzyme inhibitor mix and the assay is run for 20 min at 37° C. […] Undigested substrate is precipitated with the TCA/tannic acid solution and soluble counts are determined in a scintillation counter."}, "[4]": {"system": "mouse L cell", "conditions": "l cells; read-out: ID50 inhibition of colony formation; cited from earlier work"}, "[5]": {"system": "mouse-embryo fibroblasts", "conditions": "cited from earlier work"}, "[6]": {"system": "S180 tumors", "conditions": "therapeutic index in vivo; cited from earlier work"}, "[7]": {"system": "LS-MET-5 human colon carcinoma cells", "assay": "LS-MET-5 i.v. human colon carcinoma metastasis model in nude mice", "type": "in vivo", "protocol": "This example evaluates the effect of probimane on the survival of mice which have been injected with LS-MET-5 human colon carcinoma cells. In particular, probimane was given at 26 mg/kg in CMC, 1 intraperitoneal dose/day starting 1 day prior to intravenous injection of 1 million LS-MET-5 human colon carcinoma cells, at either 3 or 5 doses per week. During the first week the treated mice experienced a small weight drop and the dosage was decreased to 10.4 mg/kg. The control mice received CMC only at 10 μl/g.\nDose and Schedule--was suspended in sterile 1% CMC (carboxymethyl cellulose) […] by sonication in a water bath. […] Mice received drug 24 hours prior to injection of cells and each mouse received one dose/day i.p. for 5 consecutive days with 2 days of recovery or 3 consecutive days with 4 days of recovery. Treatment continued until mouse death or sacrifice.\nLS-MET-5--human colon carcinoma metastatic variant cell line was developed at Oncologix, Inc. The cells are maintained in culture in DMEM+10% FBS and are dissociated for injection with trypsin/versine. The cells are resuspended in HBSS and 1 million cells injected in 100 μl into the lateral tail vein of the mouse.\nMice--HSD nu/nu female mice 6 weeks old (18-22 g) are weighed, tagged with a metal ear clip, and radomized for treatment or control groups. Mice are weighed daily and the dose of drug or vehicle is calculated.\nSuperficial metastases in the regional lymph nodes, dorsal thoracic brown fact pad, thigh muscle and on the rib cage begin appearing around day 22. Tumor growth is rapid with small metastases quickly coalescing to form a solid collar of metastases around the neck region of the mouse.\nAlthough we have improved the incidence of mice with metastases by eliminating mice with less than perfect initial i.v. injections, we are still only 90% incidence. The experiment is terminated when the last mouse with evidence of metastases dies. The remaining mice are necropsied for presence of micro-metastases. We have found evidence that cells were indeed injected iv."}, "[8]": {"conditions": "postamputation schedule LL model"}},
  "note": "Values joined by “and” are separate entries in the source; they are usually repeats but may differ in a detail not shown here. Equal values may be shown once. Read-outs that look alike come from different tables or passages of the source.",
  "data": [
    {"compound": "O=C1CN2CCN3CC(=O)N(CN4CCOCC4)C(=O)[C@H]3[C@H]2C(=O)N1CN1CCOCC1", "values": [
      {"measurement": "antimetastatic effect", "setting": "[1]; [8]", "result": "most effective inhibitor of metastasis"}
    ]},
    {"compound": "O=C1CN2CCN3CC(=O)N(CN4CCOCC4)C(=O)[C@H]3[C@@H]2C(=O)N1CN1CCOCC1", "note": "(relative stereo)", "values": [
      {"measurement": "antimetastatic effect", "setting": "[1]; [8]", "result": "considerable antimetastatic activity"}
    ]},
    {"compound": "O=C1CN2C[C@@H]3C(=O)NC(=O)CN3C[C@@H]2C(=O)N1", "note": "(relative stereo) [Compound 23]", "values": [
      {"measurement": "antimetastatic effect", "setting": "[1]; implanted LL carcinoma", "result": "no antimetastatic effects"},
      {"measurement": "antimetastatic effect", "setting": "[1]; implanted LL carcinoma, listed as cis-23", "result": "does not exhibit any appreciable antimetastatic effect"}
    ]},
    {"compound": "O=C1CN2C[C@@H]3C(=O)N(CN4CCOCC4)C(=O)CN3C[C@@H]2C(=O)N1CN1CCOCC1", "note": "(relative stereo) [morpholinomethyl derivative of cis-23]", "values": [
      {"measurement": "antimetastatic effect", "setting": "[1]; implanted LL carcinoma", "result": "inhibits metastasis"}
    ]},
    {"compound": "O=C1CN2C[C@H]3C(=O)NC(=O)CN3C[C@@H]2C(=O)N1", "note": "[Compound 22]", "values": [
      {"measurement": "antimetastatic effect", "setting": "[1]; implanted LL carcinoma", "result": "no antimetastatic effects"}
    ]},
    {"compound": "O=C1CN([C@@H]2C[C@@H](O)[C@@H](O)C[C@@H]2N2CC(=O)NC(=O)C2)CC(=O)N1", "note": "[Compound 89, (1β, 2β, 4α, 5α)-4,4'-(4,5-dihydroxy-1,2-cyclohexanediyl)bis(2,6-piperazinedione)]", "values": [
      {"measurement": "solubility in water", "setting": "[2]", "result": 29.3, "unit": "mg/mL"}
    ]},
    {"compound": "O=C(O)CN(CCN(CC(=O)O)CC(=O)O)CC(=O)O", "note": "[EDTA, ethylenediaminetetraacetic acid]", "values": [
      {"measurement": "IC50", "setting": "[3]", "result": 300, "unit": "µM"}
    ]},
    {"compound": "O=C1CN(CCN2CC(=O)NC(=O)C2)CC(=O)N1", "note": "[ICRF-154]", "values": [
      {"measurement": "IC50", "setting": "[4]", "result": 7.3, "unit": "µM"},
      {"measurement": "IC50, inhibition of [3H]thymidine incorporation", "setting": "[5]", "result": 2.0, "unit": "µg/mL"}
    ]},
    {"compound": "O=C1CN(CCCN2CC(=O)NC(=O)C2)CC(=O)N1", "note": "[ICRF-161]", "values": [
      {"measurement": "IC50, inhibition of [3H]thymidine incorporation", "setting": "[5]", "result": "inactive"}
    ]},
    {"compound": "CCC(CN1CC(=O)NC(=O)C1)N1CC(=O)NC(=O)C1", "note": "(centres unmarked) [ICRF-192]", "values": [
      {"measurement": "IC50", "setting": "[4]", "result": 720, "unit": "µM"}
    ]},
    {"compound": "CC(C(C)N1CC(=O)NC(=O)C1)N1CC(=O)NC(=O)C1", "note": "(centres unmarked) [ICRF-193]", "values": [
      {"measurement": "calculated ratio of maximum tolerated dose to the dose required for 90% inhibition of S180 tumor growth", "setting": "[6]", "result": 6.7},
      {"measurement": "IC50", "setting": "[4]", "result": 0.09, "unit": "µM"},
      {"measurement": "IC50, inhibition of [3H]thymidine incorporation", "setting": "[5]", "result": 0.035, "unit": "µg/mL"}
    ]},
    {"compound": "CC(C(C)N1CC(=O)NC(=O)C1)N1CC(=O)NC(=O)C1", "note": "(centres unmarked) [ICRF-196]", "values": [
      {"measurement": "IC50", "setting": "[4]", "result": 150, "unit": "µM"},
      {"measurement": "IC50, inhibition of [3H]thymidine incorporation", "setting": "[5]", "result": "inactive"}
    ]},
    {"compound": "CC(CN1CC(=O)N(CN2CCOCC2)C(=O)C1)N1CC(=O)N(CN2CCOCC2)C(=O)C1", "note": "(centres unmarked) [Probimane, probimane]", "values": [
      {"measurement": "toxicity (body weight)", "setting": "[7]; 26 mg/Kg i.p. during the first week", "result": "weight drop indicated toxicity"},
      {"measurement": "Mean IST", "setting": "[7]; 3×/Week", "result": 19, "unit": "%"},
      {"measurement": "Mean Survival", "setting": "[7]; 3×/Week", "result": 52},
      {"measurement": "Median IST", "setting": "[7]; 3×/Week", "result": 18, "unit": "%"},
      {"measurement": "Median Survival", "setting": "[7]; 3×/Week", "result": 47},
      {"measurement": "Day of Death", "setting": "[7]; 3×/Week, 26 then 10.4 mg/kg i.p., single mice", "result": "43 and 44 and 45 and 46 and 52 and 62 and 63"},
      {"measurement": "Mean IST", "setting": "[7]; 5×/Week", "result": 16, "unit": "%"},
      {"measurement": "Mean Survival", "setting": "[7]; 5×/Week", "result": 50},
      {"measurement": "Median IST", "setting": "[7]; 5×/Week", "result": 18, "unit": "%"},
      {"measurement": "Median Survival", "setting": "[7]; 5×/Week", "result": 47},
      {"measurement": "Incidence of superficial metastases", "setting": "[7]; Day 29, 3×/Week", "result": "7/11"},
      {"measurement": "superficial Mets/Mouse", "setting": "[7]; Day 29, 3×/Week", "result": 1.1},
      {"measurement": "Incidence of superficial metastases", "setting": "[7]; Day 29, 5×/Week", "result": "5/11"},
      {"measurement": "superficial Mets/Mouse", "setting": "[7]; Day 29, 5×/Week", "result": 1.2},
      {"measurement": "Incidence of superficial metastases", "setting": "[7]; Day 30, 3×/Week", "result": "7/11"},
      {"measurement": "superficial Mets/Mouse", "setting": "[7]; Day 30, 3×/Week", "result": 1.9},
      {"measurement": "Incidence of superficial metastases", "setting": "[7]; Day 30, 5×/Week", "result": "10/11"},
      {"measurement": "superficial Mets/Mouse", "setting": "[7]; Day 30, 5×/Week", "result": 1.2},
      {"measurement": "Incidence of superficial metastases", "setting": "[7]; Day 31, 3×/Week", "result": "7/11"},
      {"measurement": "superficial Mets/Mouse", "setting": "[7]; Day 31, 3×/Week", "result": 1.9},
      {"measurement": "Incidence of superficial metastases", "setting": "[7]; Day 31, 5×/Week", "result": "11/11"},
      {"measurement": "superficial Mets/Mouse", "setting": "[7]; Day 31, 5×/Week", "result": 1.1},
      {"measurement": "Incidence of superficial metastases", "setting": "[7]; Day 32, 3×/Week", "result": "7/11"},
      {"measurement": "superficial Mets/Mouse", "setting": "[7]; Day 32, 3×/Week", "result": 1.9},
      {"measurement": "Incidence of superficial metastases", "setting": "[7]; Day 32, 5×/Week", "result": "11/11"},
      {"measurement": "superficial Mets/Mouse", "setting": "[7]; Day 32, 5×/Week", "result": 1.8},
      {"measurement": "condition of the treated mice", "setting": "[7]; mouse, in vivo", "result": "pale and grayish in color, with scruffy coats, and were cold to the touch"}
    ]}
  ]
}
